Patent US12202835B2, “Substituted aromatic ring-linked dioxinoquinazolines and dioxinoquinolines as kinase inhibitors” (BEIJING SCITECH-MQ PHARMACEUTICALS LIMITED, priority 2018, dated 2025)

Columns and labels:
TRKA kinase = TRKA kinase (Homo sapiens (Human), UniProt P04629); assay: Assay of small molecular compounds for inhibiting the activity of TRKA kinase (LANCE TR-FRET); assay type: biochemical
Procedure, shortened: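 LANCE TR-FRET with ULight-TK peptide; compounds pre-incubated 5 min with TRKA (2× solution 2 nM), then substrate/ATP added (4× mix: 400 nM peptide, 40 μM ATP). Reaction 60 min at room temperature in dark, 1% DMSO final; stopped, detection developed 60 min, signal read.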

MER kinase = MER kinase (Homo sapiens (Human), UniProt Q12866); assay: Assay of small molecular compounds for inhibiting the activity of MER kinase (LANCE TR-FRET); assay type: biochemical
Chain of MER kinase (Q12866 21-999): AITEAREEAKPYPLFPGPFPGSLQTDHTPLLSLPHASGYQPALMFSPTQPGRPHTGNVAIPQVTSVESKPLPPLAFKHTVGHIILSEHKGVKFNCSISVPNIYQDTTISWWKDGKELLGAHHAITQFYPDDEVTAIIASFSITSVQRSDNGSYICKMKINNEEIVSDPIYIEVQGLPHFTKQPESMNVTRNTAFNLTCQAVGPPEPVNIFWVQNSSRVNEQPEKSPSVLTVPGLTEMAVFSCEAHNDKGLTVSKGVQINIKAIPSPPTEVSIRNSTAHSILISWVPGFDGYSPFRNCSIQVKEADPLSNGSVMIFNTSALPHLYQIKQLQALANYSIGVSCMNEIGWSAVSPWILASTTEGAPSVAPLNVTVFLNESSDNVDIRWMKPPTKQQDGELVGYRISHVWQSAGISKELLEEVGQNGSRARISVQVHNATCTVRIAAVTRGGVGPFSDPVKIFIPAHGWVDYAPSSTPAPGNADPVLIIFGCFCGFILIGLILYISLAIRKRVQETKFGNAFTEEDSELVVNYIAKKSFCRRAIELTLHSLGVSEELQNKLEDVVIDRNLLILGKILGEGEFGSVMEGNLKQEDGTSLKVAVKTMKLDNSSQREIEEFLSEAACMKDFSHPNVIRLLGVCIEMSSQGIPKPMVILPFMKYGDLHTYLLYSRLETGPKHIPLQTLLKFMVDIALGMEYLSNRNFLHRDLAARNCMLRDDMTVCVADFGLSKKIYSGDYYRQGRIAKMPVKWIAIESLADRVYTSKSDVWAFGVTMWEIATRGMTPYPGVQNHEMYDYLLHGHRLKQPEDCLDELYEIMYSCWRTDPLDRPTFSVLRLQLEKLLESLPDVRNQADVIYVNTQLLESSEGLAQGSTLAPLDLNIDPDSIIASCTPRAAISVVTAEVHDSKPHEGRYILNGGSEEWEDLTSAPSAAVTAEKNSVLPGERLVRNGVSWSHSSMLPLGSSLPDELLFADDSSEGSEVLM
Procedure, shortened: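 MER kinase preincubated 5 min at RT with compound (11 points, 0.042-2500 nM final), then ULight-poly GT and ATP added (4× stocks 200 nM and 20 μM) for 60 min at RT, 1% DMSO. Phosphorylation detected by LANCE TR-FRET; IC50 from % inhibition versus controls.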

Ba/F3 LMNA-NTRK1 cells = assay: Assay for inhibiting the proliferation of Ba/F3 LMNA-NTRK1 cells (CCK-8); assay type: cell-based; conditions: Mus musculus, BaF3
Procedure, shortened: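 Cells were seeded and cultured overnight, then treated with graded compound concentrations (final DMSO 0.25%) for 72 h. CCK-8 was added for 1–2 h at 37 °C and OD450 read. Survival was normalised to untreated and cell-free blank wells, and IC50 was fitted.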

Chain of TRKA kinase (P04629 33-796): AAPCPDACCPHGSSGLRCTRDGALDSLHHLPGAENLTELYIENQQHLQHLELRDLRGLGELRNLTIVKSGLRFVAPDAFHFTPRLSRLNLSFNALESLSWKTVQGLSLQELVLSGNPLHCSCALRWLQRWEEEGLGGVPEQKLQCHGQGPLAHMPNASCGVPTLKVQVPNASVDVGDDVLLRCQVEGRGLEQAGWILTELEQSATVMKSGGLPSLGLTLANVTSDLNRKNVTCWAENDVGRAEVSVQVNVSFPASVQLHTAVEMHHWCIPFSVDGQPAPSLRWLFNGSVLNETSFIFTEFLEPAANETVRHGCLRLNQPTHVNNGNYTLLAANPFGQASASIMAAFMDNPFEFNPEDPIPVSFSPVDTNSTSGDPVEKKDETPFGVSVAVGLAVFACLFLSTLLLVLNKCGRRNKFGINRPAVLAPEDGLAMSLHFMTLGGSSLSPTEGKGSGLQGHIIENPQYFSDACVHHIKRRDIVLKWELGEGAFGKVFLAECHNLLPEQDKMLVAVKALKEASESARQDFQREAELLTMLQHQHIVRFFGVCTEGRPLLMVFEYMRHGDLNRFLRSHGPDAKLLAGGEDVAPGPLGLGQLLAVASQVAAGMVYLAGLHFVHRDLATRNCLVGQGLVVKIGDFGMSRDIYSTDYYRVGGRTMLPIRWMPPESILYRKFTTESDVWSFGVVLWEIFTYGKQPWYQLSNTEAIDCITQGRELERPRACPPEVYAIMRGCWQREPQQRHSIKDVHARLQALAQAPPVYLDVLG

| Compound | IC50 (TRKA kinase) [µM] | IC50 (MER kinase) [µM] | IC50 (Ba/F3 LMNA-NTRK1 cells) [µM] |
| --- | --- | --- | --- |
| O=C(Nc1ccc(Oc2ncnc3cc(OCCCN4CCOCC4)c4c(c23)OCCO4)c(F)c1)c1cccn(-c2ccc(F)cc2)c1=O [Example 4, N-(3-fluoro-4-((5-(3-morpholinopropoxy)-2,3-dihydro-[1,4]dioxino[2,3-f]quinazolin-10-yl)oxy)phenyl)-1-(4-fluorophenyl)-2-oxo-1,2-dihydropyridine-3-carboxamide] | < 0.05 | ≤ 0.05 |  |
| COCCOc1cc2nccc(Oc3ccc(NC(=O)c4cn(C)c(=O)n(-c5ccc(F)cc5)c4=O)cc3)c2c2c1OCCO2 [Example 147, N-(4-((5-(2-methoxyethoxy)-2,3-dihydro-[1,4]dioxino[2,3-f]quinolin-10-yl)oxy)phenyl)-3-(4-fluorophenyl)-1-methyl-2,4-dioxo-1,2,3,4-tetrahydropyrimidine-5-carboxamide] | < 0.05 |  | < 0.05 |
| Cn1cc(C(=O)Nc2ccc(Oc3ccnc4cc(OCC(C)(C)O)c5c(c34)OCCO5)cc2)c(=O)n(-c2ccc(F)cc2)c1=O [Example 149, N-(4-((5-(2-hydroxy-2-methylpropoxy)-2,3-dihydro-[1,4]dioxino[2,3-f]quinolin-10-yl)oxy)phenyl)-3-(4-fluorophenyl)-1-methyl-2,4-dioxo-1,2,3,4-tetrahydropyrimidine-5-carboxamide] | < 0.05 |  | < 0.05 |
| COCCOc1cc2nccc(Oc3ccc(NC(=O)c4cn(C)c(=O)n(-c5ccc(F)cc5)c4=O)c(F)c3)c2c2c1OCCO2 [Example 155, N-(2-fluoro-4-((5-(2-methoxyethoxy)-2,3-dihydro-[1,4]dioxino[2,3-f]quinolin-10-yl)oxy)phenyl)-3-(4-fluorophenyl)-1-methyl-2,4-dioxo-1,2,3,4-tetrahydropyrimidine-5-carboxamide] | < 0.05 |  | < 0.05 |
| O=C(Nc1ccc(Oc2ccnc3ccc4c(c23)OCCO4)cc1F)c1cccn(-c2ccc(F)cc2)c1=O [Example 170, N-(4-((2,3-dihydro-[1,4]dioxino[2,3-f]quinolin-10-yl)oxy)-2-fluorophenyl)-1-(4-fluorophenyl)-2-oxo-1,2-dihydropyridine-3-carboxamide] | < 0.05 | ≤ 0.05 |  |
| CCn1cc(C(=O)Nc2cc(F)c(Oc3ccnc4cc(OCCOC)c5c(c34)OCCO5)cc2C)c(=O)n(-c2ccc(F)cc2)c1=O [Example 180, N-(5-fluoro-4-((5-(2-methoxyethoxy)-2,3-dihydro-[1,4]dioxino[2,3-f]quinolin-10-yl)oxy)-2-methylphenyl)-3-(4-fluorophenyl)-1-ethyl-2,4-dioxo-1,2,3,4-tetrahydropyrimidine-5-carboxamide] | < 0.05 |  | < 0.05 |
| COc1cc2nccc(Oc3ccc(NC(=O)c4cn(C)c(=O)n(-c5ccc(F)cc5)c4=O)c(F)c3)c2c2c1OCCO2 [Example 153, N-(2-fluoro-4-((5-methoxy-2,3-dihydro-[1,4]dioxino[2,3-f]quinolin-10-yl)oxy)phenyl)-3-(4-fluorophenyl)-1-methyl-2,4-dioxo-1,2,3,4-tetrahydropyrimidine-5-carboxamide] | < 0.05 |  | < 0.05 |
| O=C(Nc1ccc(Oc2ccnc3ccc4c(c23)OCCO4)c(F)c1)c1cccn(-c2ccc(F)cc2)c1=O [Example 169, N-(4-((2,3-dihydro-[1,4]dioxino[2,3-f]quinolin-10-yl)oxy)-3-fluorophenyl)-1-(4-fluorophenyl)-2-oxo-1,2-dihydropyridine-3-carboxamide] | < 0.05 | ≤ 0.05 |  |
| CCn1cc(C(=O)Nc2ccc(Oc3ccnc4cc(OCCOC)c5c(c34)OCCO5)cc2F)c(=O)n(-c2ccc(F)cc2)c1=O [Example 156, N-(2-fluoro-4-((5-(2-methoxyethoxy)-2,3-dihydro-[1,4]dioxino[2,3-f]quinolin-10-yl)oxy)phenyl)-3-(4-fluorophenyl)-1-ethyl-2,4-dioxo-1,2,3,4-tetrahydropyrimidine-5-carboxamide] | < 0.05 |  | < 0.05 |
| COc1cc2nccc(Oc3ccc(NC(=O)c4cn(C)c(=O)n(-c5ccc(F)cc5)c4=O)cc3)c2c2c1OCCO2 [Example 145, N-(4-((5-methoxy-2,3-dihydro-[1,4]dioxino[2,3-f]quinolin-10-yl)oxy)phenyl)-3-(4-fluorophenyl)-1-methyl-2,4-dioxo-1,2,3,4-tetrahydropyrimidine-5-carboxamide] | < 0.05 |  | < 0.05 |
| CCn1cc(C(=O)Nc2ccc(Oc3ccnc4cc(OCC(C)(C)O)c5c(c34)OCCO5)cc2)c(=O)n(-c2ccc(F)cc2)c1=O [Example 150, N-(4-((5-(2-hydroxy-2-methylpropoxy)-2,3-dihydro-[1,4]dioxino[2,3-f]quinolin-10-yl)oxy)phenyl)-3-(4-fluorophenyl)-1-ethyl-2,4-dioxo-1,2,3,4-tetrahydropyrimidine-5-carboxamide] | < 0.05 |  | < 0.05 |

Next, values leading:

| IC50 (TRKA kinase) [µM] | IC50 (MER kinase) [µM] | IC50 (Ba/F3 LMNA-NTRK1 cells) [µM] | Compound |
| --- | --- | --- | --- |
| < 0.05 | ≤ 0.05 |  | COc1ccn(-c2ccc(F)cc2)c(=O)c1C(=O)Nc1ccc(Oc2ccnc3ccc4c(c23)OCCO4)cc1F [Example 172, N-(4-((2,3-dihydro-[1,4]dioxino[2,3-f]quinolin-10-yl)oxy)-2-fluorophenyl)-1-(4-fluorophenyl)-4-methoxy-2-oxo-1,2-dihydropyridine-3-carboxamide] |
| 0.05 to 0.5 | ≤ 0.05 |  | COc1cc2nccc(Oc3ccc(NC(=O)c4cn(CCF)c(=O)n(-c5ccc(F)cc5)c4=O)cc3F)c2c2c1OCCO2 [Example 101, N-(3-fluoro-4-((5-methoxy-2,3-dihydro-[1,4]dioxino[2,3-f]quinolin-10-yl)oxy)phenyl)-3-(4-fluorophenyl)-1-(2-fluoroethyl)-2,4-dioxo-1,2,3,4-tetrahydropyrimidine-5-carboxamide] |
| 0.05 to 0.5 | ≤ 0.05 |  | CCOc1ccn(Cc2ccccc2)c(=O)c1C(=O)Nc1ccc(Oc2ccnc3cc(OC)c4c(c23)OCCO4)c(F)c1 [Example 117, N-(3-fluoro-4-((5-methoxy-2,3-dihydro-[1,4]dioxino[2,3-f]quinolin-10-yl)oxy)phenyl)-2-oxo-4-ethoxy-1-benzyl-1,2-dihydropyridin-3-carboxamide] |
| 0.05 to 0.5 | ≤ 0.05 |  | Cn1cc(C(=O)Nc2ccc(Oc3ccnc4cc(OCC(C)(C)O)c5c(c34)OCCO5)c(F)c2)c(=O)n(-c2ccc(F)cc2)c1=O [Example 121, N-(3-fluoro-4-((5-(2-hydroxy-2-methylpropoxy)-2,3-dihydro-[1,4]dioxino[2,3-f]quinolin-10-yl)oxy)phenyl)-3-(4-fluorophenyl)-1-methyl-2,4-dioxo-1,2,3,4-tetrahydropyrimidine-5-carboxamide] |
| < 0.05 |  | < 0.05 | CCn1cc(C(=O)Nc2ccc(Oc3ccnc4cc(OC)c5c(c34)OCCO5)cc2)c(=O)n(-c2ccc(F)cc2)c1=O [Example 146, N-(4-((5-methoxy-2,3-dihydro-[1,4]dioxino[2,3-f]quinolin-10-yl)oxy)phenyl)-3-(4-fluorophenyl)-1-ethyl-2,4-dioxo-1,2,3,4-tetrahydropyrimidine-5-carboxamide] |
| 0.05 to 0.5 | ≤ 0.05 |  | CC(C)n1cc(C(=O)Nc2ccc(Oc3ccnc4cc(OCC5(N)CC5)c5c(c34)OCCO5)c(F)c2)c(=O)n(-c2ccc(F)cc2)c1=O [Example 106, N-(3-fluoro-4-((5-((1-aminocyclopropyl)methoxy)-2,3-dihydro-[1,4]dioxino[2,3-f]quinolin-1 0-yl)oxy)phenyl)-3-(4-fluorophenyl)-1-isopropyl-2,4-dioxo-1,2,3,4-tetrahydropyrimidine-5-carboxamide] |
| 0.05 to 0.5 | ≤ 0.05 |  | CCOc1ccn(-c2cccc(F)c2)c(=O)c1C(=O)Nc1ccc(Oc2ccnc3cc(OC)c4c(c23)OCCO4)c(F)c1 [Example 114, N-(3-fluoro-4-((5-methoxy-2,3-dihydro-[1,4]dioxino[2,3-f]quinolin-10-yl)oxy)phenyl)-2-oxo-4-ethoxy-1-(3-fluorophenyl)-1,2-dihydropyridin-3-carboxamide] |
| < 0.05 | ≤ 0.05 |  | CCOc1ccn(-c2ccc(F)cc2)c(=O)c1C(=O)Nc1ccc(Oc2ccnc3ccc4c(c23)OCCO4)cc1F [Example 171, N-(4-((2,3-dihydro-[1,4]dioxino[2,3-f]quinolin-10-yl)oxy)-2-fluorophenyl)-1-(4-fluorophenyl)-4-ethoxy-2-oxo-1,2-dihydropyridine-3-carboxamide] |
| 0.05 to 0.5 | ≤ 0.05 |  | COc1cc2nccc(Oc3ccc(NC(=O)c4cn(CCCO)c(=O)n(-c5ccc(F)cc5)c4=O)cc3F)c2c2c1OCCO2 [Example 99, N-(3-fluoro-4-((5-methoxy-2,3-dihydro-[1,4]dioxino[2,3-f]quinolin-10-yl)oxy)phenyl)-3-(4-fluorophenyl)-1-(3-hydroxypropyl)-2,4-dioxo-1,2,3,4-tetrahydropyrimidine-5-carboxamide] |
| < 0.05 | ≤ 0.05 |  | COc1ccn(-c2ccc(F)cc2)c(=O)c1C(=O)Nc1ccc(Oc2ncnc3cc(OCCCN4CCOCC4)c4c(c23)OCCO4)c(F)c1 [Example 5, N-(3-fluoro-4-((5-(3-morpholinopropoxy)-2,3-dihydro-[1,4]dioxino[2,3-f]quinazolin-10-yl)oxy)phenyl)-1-(4-fluorophenyl)-4-methoxy-2-oxo-1,2-dihydropyridine-3-carboxamide] |
| 0.05 to 0.5 | ≤ 0.05 |  | C=CCn1cc(C(=O)Nc2ccc(Oc3ccnc4cc(OC)c5c(c34)OCCO5)c(F)c2)c(=O)n(-c2ccc(F)cc2)c1=O [Example 100, N-(3-fluoro-4-((5-methoxy-2,3-dihydro-[1,4]dioxino[2,3-f]quinolin-10-yl)oxy)phenyl)-3-(4-fluorophenyl)-1-allyl-2,4-dioxo-1,2,3,4-tetrahydropyrimidine-5-carboxamide] |
